Values of other authors in patent publication US9468651B1, “Method of removing moles” (priority 2009, dated 2016).

Details: property of the ingredient stated with a literature reference (Merck Index; Concise Encyclopedia of Chemical Technology)

Q: With `[K+].[OH-]` [Potassium hydroxide] as the compound, how does the PH value read?
A: 13.5
